Laboratory results: ChEMBL document CHEMBL1201862, “PubChem BioAssay data set” (2004)
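Briefly, cells in 96-well plates were exposed to five compound concentrations for 48 h, and endpoints were estimated by linear interpolation. GI50 = concentration required for 50% inhibition of growth.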 Active and inactive are the calls of the source. No stated cut-off is given here; in the data, active = GI50 up to about 1.1 µM and inactive = higher.

Legend:
Experiment in all cases: NCI anticancer screen, dose series, 48 h
[1] = system: 786-0
[2] = system: A549
[3] = system: ACHN
[4] = system: CCRF-CEM
[5] = system: DLD-1
[6] = system: DMS-114
[7] = system: DMS-273
[8] = system: HCT-116
[9] = system: HCT-15
[10] = system: HL-60
[11] = system: HOP-18
[12] = system: HT-29
[13] = system: IGROV-1
[14] = system: K562
[15] = system: KM12
[16] = system: LOX IMVI
[17] = system: LXFL 529
[18] = system: M14
[19] = system: M19-MEL
[20] = system: MOLT-4
[21] = system: Malme-3M
[22] = system: NCI-H226
[23] = system: NCI-H23
[24] = system: NCI-H460
[25] = system: NCI-H522
[26] = system: OVCAR-3
[27] = system: OVCAR-4
[28] = system: OVCAR-8
[29] = system: SF-268
[30] = system: SF-295
[31] = system: SF-539
[32] = system: SK-MEL-28
[33] = system: SK-MEL-2
[34] = system: SK-MEL-5
[35] = system: SK-OV-3
[36] = system: SN12C
[37] = system: SNB-75
[38] = system: SNB-78
[39] = system: SW-620
[40] = system: TK-10
[41] = system: U-251
[42] = system: UACC-257
[43] = system: UACC-62
[44] = system: UO-31
[45] = system: XF498
[46] = system: A498
[47] = system: CAKI-1
[48] = system: COLO 205
[49] = system: EKVX
[50] = system: HOP-62
[51] = system: HOP-92
[52] = system: KM-20L2
[53] = system: OVCAR-5
[54] = system: RPMI-8226
[55] = system: RXF 393
[56] = system: SNB-19
[57] = system: HCC 2998
[58] = system: SR

Measured: GI50

CC(Oc1ccc(OCC2CCCCC2)cc1)C(=O)O (stereo not drawn)
inactive: [1] > 100 µM | [2] > 100 µM | [3] > 100 µM | [4] > 100 µM | [5] > 100 µM | [6] > 100 µM | [7] > 100 µM | [8] > 100 µM | [10] > 100 µM | [11] > 100 µM | [12] > 100 µM | [13] > 100 µM | [14] > 100 µM | [15] > 100 µM | [16] > 100 µM | [17] > 100 µM | [18] > 100 µM | [19] > 100 µM | [20] > 100 µM | [21] > 100 µM | [22] > 100 µM | [23] > 100 µM | [24] > 100 µM | [25] > 100 µM | [26] > 100 µM | [27] > 100 µM | [28] > 100 µM | [29] > 100 µM | [30] > 100 µM | [31] > 100 µM | [32] > 100 µM | [33] > 100 µM | [34] > 100 µM | [35] > 100 µM | [36] > 100 µM | [37] > 100 µM | [38] > 100 µM | [39] > 100 µM | [40] > 100 µM | [41] > 100 µM | [42] > 100 µM | [43] > 100 µM | [44] > 100 µM | [45] > 100 µM
> 100 µM: [9]

Cc1cc(C)nc(NS(=O)(=O)c2ccc(Nc3c4ccccc4nc4c(C(=O)Nc5ccc(S(N)(=O)=O)cc5)cccc34)cc2)n1
47.1 µM: [9]
inactive: [1] > 100 µM | [46] 43.3 µM | [2] > 100 µM | [3] > 100 µM | [47] > 100 µM | [4] > 100 µM | [48] > 100 µM | [5] 71.8 µM | [6] > 100 µM | [7] 92.5 µM | [49] 35.1 µM | [8] 83.8 µM | [11] 51.6 µM | [50] > 100 µM | [51] 30.9 µM | [12] > 100 µM | [13] > 100 µM | [14] 72.4 µM | [52] > 100 µM | [15] 63.7 µM | [16] 75.9 µM | [17] 88.9 µM | [18] 71.6 µM | [19] 94.2 µM | [20] > 100 µM | [21] > 100 µM | [23] 68.5 µM | [24] 88.1 µM | [25] 30.8 µM | [26] 66.5 µM | [27] 85.5 µM | [53] > 100 µM | [28] > 100 µM | [54] > 100 µM | [55] 38 µM | [29] 50.9 µM | [30] > 100 µM | [31] > 100 µM | [32] 83.9 µM | [33] > 100 µM | [34] > 100 µM | [35] 11.8 µM | [36] > 100 µM | [56] 47 µM | [37] 25.8 µM | [38] > 100 µM | [39] > 100 µM | [40] > 10 µM | [41] 58.3 µM | [42] > 100 µM | [43] 66.1 µM | [44] 37 µM | [45] > 100 µM

CCC1=CCC(P(=O)(c2ccccc2)c2ccccc2)CC1C (stereo not drawn)
inactive: [1] 39 µM | [46] 38.5 µM | [2] 37.1 µM | [47] > 100 µM | [4] 31.3 µM | [48] 35 µM | [6] 32.9 µM | [7] 36.3 µM | [49] 35.3 µM | [8] 22.9 µM | [10] 22.2 µM | [11] 22.8 µM | [51] 25.5 µM | [12] > 100 µM | [13] 47.1 µM | [14] 35.2 µM | [52] 37.1 µM | [15] 35.1 µM | [16] 44.3 µM | [17] 41.8 µM | [18] 32.6 µM | [19] 39.5 µM | [20] 20.5 µM | [21] 41.7 µM | [22] 39.2 µM | [23] 39.7 µM | [24] 39.1 µM | [25] 20.7 µM | [26] 35.4 µM | [27] 35.6 µM | [53] 65.2 µM | [28] 39.1 µM | [54] 22.9 µM | [55] 42.2 µM | [29] 35.2 µM | [30] 32 µM | [31] 42.9 µM | [32] 37.8 µM | [33] 29.7 µM | [34] 28 µM | [35] 62.8 µM | [36] 44.7 µM | [56] 27.5 µM | [37] 18.5 µM | [38] 61.2 µM | [39] 48.5 µM | [40] 32.6 µM | [41] 46.1 µM | [42] 74.5 µM | [43] 33.3 µM | [44] 21.7 µM | [45] 40.1 µM
34.9 µM: [9]

Oc1cc2c(cc1O)-c1[nH]ncc1CC2
inactive: [1] 39.6 µM | [46] 25.4 µM | [2] 42.4 µM | [3] 21.6 µM | [47] 33.6 µM | [4] 11.4 µM | [48] 26.1 µM | [5] 52.5 µM | [6] 16.5 µM | [7] 42.1 µM | [49] 10.2 µM | [57] 22.4 µM | [8] 51.1 µM | [10] 24.3 µM | [11] 6.15 µM | [50] 55.5 µM | [51] 14.4 µM | [12] 37.6 µM | [13] 31.6 µM | [14] 32.7 µM | [52] 38.5 µM | [15] 49.5 µM | [16] 33.5 µM | [17] 31.3 µM | [18] 72.4 µM | [19] 40.7 µM | [20] 22.4 µM | [21] 59.8 µM | [22] 18.6 µM | [23] 35.4 µM | [24] 43.3 µM | [25] 11.7 µM | [53] 63.4 µM | [28] 37.9 µM | [29] 25.6 µM | [30] 49.1 µM | [31] 22.4 µM | [32] 58.3 µM | [33] 64.9 µM | [34] 35.1 µM | [35] 22.5 µM | [36] 49 µM | [56] 46.8 µM | [37] 16.6 µM | [38] 80.4 µM | [58] 27.8 µM | [39] 35.4 µM | [40] 75 µM | [41] 18.2 µM | [42] 58.7 µM | [43] 27.8 µM | [44] 18.4 µM | [45] 27.6 µM
54.1 µM: [9]

Cc1ccc(N2C(=O)C3C=CC(n4[nH]c(=O)n(Cc5ccccc5)c4=O)CC3C2=O)cc1 (stereo not drawn)
inactive: [1] > 100 µM | [46] > 100 µM | [2] > 100 µM | [3] > 100 µM | [47] > 100 µM | [4] > 100 µM | [48] > 100 µM | [5] > 100 µM | [6] > 100 µM | [7] > 100 µM | [49] > 100 µM | [57] > 100 µM | [8] > 100 µM | [10] > 100 µM | [11] > 100 µM | [50] > 100 µM | [51] > 100 µM | [12] > 100 µM | [13] > 100 µM | [14] > 100 µM | [52] > 100 µM | [15] > 100 µM | [16] > 100 µM | [17] > 100 µM | [18] > 100 µM | [19] > 100 µM | [20] > 100 µM | [21] > 100 µM | [22] > 100 µM | [23] > 100 µM | [24] > 100 µM | [25] > 100 µM | [26] > 100 µM | [53] > 100 µM | [28] > 100 µM | [54] > 100 µM | [55] > 100 µM | [29] > 100 µM | [30] > 100 µM | [31] > 100 µM | [32] > 100 µM | [33] > 100 µM | [34] > 100 µM | [35] > 100 µM | [36] > 100 µM | [56] > 100 µM | [37] 74.6 µM | [38] > 100 µM | [58] > 100 µM | [39] > 100 µM | [40] > 100 µM | [41] > 100 µM | [42] > 100 µM | [43] > 100 µM | [44] > 100 µM | [45] > 100 µM
> 100 µM: [9]
